Test results from patent US20250160318A1, “CRYOPRESERVATION SOLUTION AND USE THEREOF IN REDUCING ISCHEMIA-REPERFUSION INJURY (IRI) OF CELL, TISSUE, OR ORGAN” (Third Affiliated Hospital, Sun Yat-sen University, priority 2023, published 2025).

Key:
hUC-MSCs [1] = assay: Culture of hUC-MSCs plated after 72 h cryopreservation (cell status by light microscopy, cell number after 3 days); format: cell-based, human; details: hUC-MSCs after 72 h cryopreservation in Hibernate-A plus metabolite, 37° C., FIG. 3
Source text: (§1) Cells used in this experiment were: hUC-MSCs (donated umbilical cord tissues from the Biotherapy Center of the Third Affiliated Hospital of Sun Yat-sen University and newborns).
(§2) The number of cells used in this experiment was: 1×10^6 cells.
(§3) The basic cryopreservation solution used in this experiment was Hibernate™-A medium (Thermofisher, catalog number: GIBCO A1247501), and the components were shown in Table 1.
(§4) The experimental groups of this example included: Hibernate™-A, Hibernate™-A+TUDCA, Hibernate™-A+QCA, and Hibernate™-A+Phosphocholine.
(§5) The experimental operation of this example included: 1 mL of the resuspended hUC-MSCs cells in Hibernate™-A basic cryopreservation solution with the above-mentioned specified metabolites added were placed in a 5 mL EP tube, allowed to stand at room temperature for 20 min, and then placed in a 4° C. refrigerator shaker for slow shaking to allow cryopreservation for 72 h. After cryopreservation for 72 h, the cells were centrifuged and counted with trypan blue to calculate the cell survival rate, and then plated on a 96-well plates for CCK8 cell proliferation assay. The remaining cells were continued to be plated on a 6-well plate and placed in a 37° C. cell culture incubator to observe the subsequent cell status.

Hepatocytes = assay: Cryopreservation and rewarming of hepatocytes (MitoNeoD mitochondrial ROS, real-time imaging of cell membrane integrity); format: cell-based; details: UW solution with 50 μM phosphocholine, 4° C. 12 h, rewarming medium with 500 μM phosphocholine, 37° C. 2 h, FIGS. 7A-7B
Protocol: Hepatocytes cultured under normal conditions served as a 37° C. control. For cold exposure treatment, the medium was replaced with UW solution at room temperature for 15 min, and the cells in UW solution (containing 50 μM phosphocholine) were transferred to a 4° C. refrigerator for 12 h. Rewarming involved taking cells out of the refrigerator and culturing with a pre-chilled medium (containing 500 μM phosphocholine). After allowing to stand for 15 min at room temperature, the cells were transferred to a 37° C. incubator for 2 h. The integrity of cell membranes is dynamically monitored by Real-time imaging using MitoNeoD live cell dye to assess the mitochondrial ROS and transfection of a plasmid carrying the mNeonGreen tag and the phospholipase Cδ PH domain.

hUC-MSCs [2] = assay: Immediate cell survival rate of hUC-MSCs by trypan blue counting after 72 h cryopreservation at 4° C.; format: cell-based, human; details: metabolite added to Hibernate-A basic cryopreservation solution, FIG. 3
Source text: as §1, §2, §3, §4, §5

rat liver = assay: Static cold storage and rewarming/reperfusion of isolated rat liver (H&E sectioning, TUNEL staining); details: phosphocholine supplemented during rewarming/reperfusion, 4° C. 48 h, perfused 37° C. 2 h, FIGS. 8A-8C
Protocol: 2-3 month old male/female SD rats or 2-3 month old golden hamsters were fasted overnight and anesthetized by inhalation of isoflurane, and then given 50 IU of heparin. The bile duct was cannulated with a PE-10 catheter, and the portal vein was cannulated with a 22-G Introcan catheter. The liver was washed with physiological saline, UW, or UW supplemented with phosphocholine (50 μM) and collected. A perfusion system was established in a circulation mode, and 250 mL of a Krebs-Henseleit (KH) bicarbonate buffer or KH buffer supplemented with phosphocholine (500 μM) was prepared. Oxygenation was conducted in a mixed gas of 95% O2 and 5% CO2 through a fiber oxygenator to a partial pressure of oxygen exceeding 500 mmHg. The liver was stored at 4° C. for 48 h, equilibrated at room temperature for 10 min, and perfused at 37° C. for 2 h. A flow rate was set in pressure control mode, and a portal vein pressure (PVP) was kept constant at 12 mmHg. The flow rate and PVP were automatically monitored and recorded. The portal vein resistance (PVR) was calculated as follows: PVR (mmHg/mL×min×g liver)=PVP (12 mmHg)/portal vein flow rate (mLxminxg liver). Liver samples were fixated in 4% paraformaldehyde for subsequent H&E sectioning and TUNEL staining. […]

Compound	total number of cells obtained after being plated and cultured for 3 days versus basic cryopreservation solution control (hUC-MSCs [1])	ROS in hepatocyte mitochondria (Hepatocytes; MitoNeoD)	integrity of hepatocyte membrane (Hepatocytes; mNeonGreen-PLCδ PH domain imaging)	immediate cell survival rate versus basic cryopreservation solution control (hUC-MSCs [2])	cell apoptosis versus control group (TUNEL staining) (rat liver)	sinus cavity (H&E sections) (rat liver)
C[N+](C)(C)CCOP(=O)([O-])O [phosphocholine]	significantly more	reduce	maintain the integrity	slightly lower	milder	apparently normal
C[C@H](CCC(=O)NCCS(=O)(=O)[O-])[C@H]1CC[C@H]2[C@@H]3[C@@H](O)C[C@@H]4C[C@H](O)CC[C@]4(C)[C@H]3CC[C@]12C.[Na+] [TUDCA, sodium tauroursodeoxycholate]	significantly more	–	–	significantly higher	–	–
O=C(O)c1ccnc2ccccc12 [QCA, quinoline-4-carboxylic acid]	significantly more	–	–	slightly lower	–	–
